# Test results as given in PMC3989846 (Malaria Journal, 2014).
# Key:
# [1] = tested on: luciferase-expressing P. berghei ANKA sporozoites; experiment: Real time in vivo imaging (IVIS) of liver-stage luminescence in sporozoite-infected mice; design: species or system Plasmodium berghei; settings: for Suppression rate (%) IVIS 24 h: 24 h post infection; for Suppression rate (%) IVIS 48 h: 48 h post infection; for Suppression rate (%) IVIS 72 h: 72 h post infection
# Source text: Luciferase-expressing P. berghei ANKA sporozoites were obtained from laboratory-reared female An. stephensi mosquitoes from the Department of Mosquito Biology, WRAIR. […] Salivary glands were extracted from malaria-infected mosquitoes and kept on ice in RPMI medium with 1% mouse serum. Sporozoites will be recovered by the method of Ozaki, and quantitated using a haemocytometer. Sporozoites isolated from the same batch of mosquitoes will be inoculated into C57BL/6 albino mice on the same day to control for biological variability in sporozoite preparations. Each C57BL/6 mouse will be inoculated intravenously in the tail vein with approximately 50,000 sporozoites suspended in 0.1 mL volume on day 0. To ensure that inoculated sporozoites are viable following the isolation procedure, they will be stained with a vital dye containing fluorescein diacetate (50 mg/mL in acetone) and ethidium bromide (20 μg/mL in phosphate-buffered saline; Sigma Chemical Co., St. Louis, Mo.) and counted in a haemocytometer.
# […] […] Additionally, blood stage infections were measured by flow cytometry. Positive and negative controls were used for the IVIS calibration in each test.
# (§1) Causal prophylactic effects and delay in onset of parasitaemia in animals treated with TQ and PQ (Figure 1) were assessed in these experiments, which included a positive control, 4-methyl-PQ. All dosing was conducted based on the body weight at the time of preparation of the dosing solution. […] Each animal received 0.1 - 0.2 ml of the oral solutions, delivered via an intragastric feeder (18-gauge) to the designated recipient. Stock solutions of test compounds were prepared fresh daily by grinding the needed amount of drug in cold (4°C) 0.5% (w/v) hydroxyethyl cellulose and 0.2% (v/v) Tween-80 (0.5% HECT) and diluting the resulting solution at variable concentrations. C57BL/6 albino mice were challenged intravenously with 50,000 luciferase-expressing P. berghei sporozoites extracted from the salivary glands of heavily infected An. stephensi mosquitoes. […] At day 5–30 after infection, the same mice were analysed for blood stage infection by determination of the course of parasitaemia of tail blood by flow cytometry using an FC500 flow cytometer (Beckman-Coulter Co. CA).
# In vivo imaging studies of bioluminescence activity from luciferase expressing P. berghei infected mice were performed using a Perkin Elmer IVIS Spectrum (Hanover, MD). […] Three minutes post luciferin administration the mice were anesthetized with inhaled isoflurane. The mice were then positioned ventral side up in the IVIS on a 37°C platform. The mice continue to receive isoflurane through nose cone delivery. The camera exposure times utilized were 1 and 5 minutes for the 24, 48, and 72 hour time points with f-stop = 1 and large binning setting. Quantitative analysis of bioluminescence emitted from whole bodies or region of intensity (ROI) were determined by measuring the luminescence signal intensity in photons/second using the ROI settings of the Living Image® 3.0 software. The ROI, which measurements were expressed in total flux of photons, was set to measure the abdominal area at the location of the liver from whole body imaging.
# In the in vivo imaging experiments, causal prophylaxis activity, sporontocidal activity, parasite clearance, causal cure, delays in patency, and time to recrudescence were calculated as described previously. The minimum curative dose (MCD100) in 100% animals was defined as the lowest dose, which cured all animals (>5 animals) in a group at any time during the first 30 days of the follow-up period.
# [2] = tested on: P. berghei ANKA blood stage parasitaemia; experiment: Blood stage infection by flow cytometry (FCM) and causal prophylaxis outcome after sporozoite challenge; format: in vivo, Plasmodium berghei; settings: for Effects: CP = causal prophylaxis; for Blood Infection by FCM: infected/challenged mice
# Description: Novel and control anti-malarials were administered orally on days -1, 0, and 1 with respect to sporozoite inoculation. […] Additionally, blood stage infections were measured by flow cytometry. Positive and negative controls were used for the IVIS calibration in each test.
# as §1
# At day 5–30 after infection, the same mice were analysed for blood stage infections by quantitation of malaria parasites by flow cytometry (FCM). All FCM analyses were carried out with a FC500 MPL flow cytometer (Beckman Coulter, Fullerton, CA), which conducts five-colour analysis from either single or dual laser excitation. Infected erythrocytes, uninfected erythrocytes, and leukocytes were gated on logarithmic forward/side dot plots. Cells were analysed at an average rate of 2,000-3,000 erythrocytes/s. Filters were placed before the green (FL-1) and red (FL-2) photomultiplier tubes (PMTs) such that the green PMT registered fluorescence emission between 520 and 555 nm, and the red PMT measured emission greater than 580 nm.
# A drop of blood (3 μL) from the mouse tail was collected directly into 0.3 ml of 1% heparinized isotonic buffer (PBS saline). In this study, 1 ml 0.04% of glutaraldehyde was used for fixation and the samples were then incubated at 4°C for 60 minutes. The cells were centrifuged at 450 × g for 5 min. […] After centrifugation, the permeabilized cells were re-suspended in 0.5 ml of RNAse at 1 mg/ml concentrations and incubated for at least 2 hours at 37°C to ensure complete digestion of reticulocytes. Plasmodium berghei infection in mice results in anaemia which then results in reticulocytosis. Therefore, high RNAse concentrations for digesting large amounts of reticulocytes RNA were required for assessment of parasitaemia in this mouse model.
# In the in vivo imaging experiments, causal prophylaxis activity, sporontocidal activity, parasite clearance, causal cure, delays in patency, and time to recrudescence were calculated as described previously. The minimum curative dose (MCD100) in 100% animals was defined as the lowest dose, which cured all animals (>5 animals) in a group at any time during the first 30 days of the follow-up period. […] Means and standard deviations of photon measurement were calculated. Blood stage infection was defined as two positive blood samples by flow cytometry, taken daily apart. The negative blood samples were monitored until day 15 after inoculation. Coefficients of variation were calculated as a percentage by dividing the standard deviation by the mean value.
# [3] = 5 mg/kg oral, 3 days (-1, 0, 1)
# [4] = 10 mg/kg oral, 3 days (-1, 0, 1)
# [5] = 15 mg/kg oral, 3 days (-1, 0, 1)
# [6] = 20 mg/kg oral, 3 days (-1, 0, 1)
# [7] = 25 mg/kg oral, 3 days (-1, 0, 1)
# [8] = 25 mg/kg single oral dose on day 0
# [9] = 25 mg/kg single oral dose on day -1
structure (smiles),measurement,setting,value
"COc1cc(NC(C)CCCN)c2ncccc2c1 (stereo not drawn) [Primaquine, primaquine]",Suppression rate (%) IVIS 24 h,[1]; [3],82.4%
same,Suppression rate (%) IVIS 48 h,[1]; [3],77.5%
same,Suppression rate (%) IVIS 72 h,[1]; [3],89.4%
same,Suppression rate (%) IVIS 24 h,[1]; [4],100%
same,Suppression rate (%) IVIS 48 h,[1]; [4],97.6%
same,Suppression rate (%) IVIS 72 h,[1]; [4],100%
same,low level of luminescence,"[1]; 10 mg/kg x 3 days, 5 of 10 animals, 48 hours",0.66 × 10^5 photons/sec
same,Suppression rate (%) IVIS 24 h,[1]; [5],100%
same,Suppression rate (%) IVIS 48 h,[1]; [5],100%
same,Suppression rate (%) IVIS 72 h,[1]; [5],100%
same,Suppression rate (%) IVIS 24 h,[1]; [6],100%
same,Suppression rate (%) IVIS 48 h,[1]; [6],100%
same,Suppression rate (%) IVIS 72 h,[1]; [6],100%
same,Suppression rate (%) IVIS 24 h,[1]; [7],100%
same,Suppression rate (%) IVIS 48 h,[1]; [7],100%
same,Suppression rate (%) IVIS 72 h,[1]; [7],100%
same,Suppression rate (%) IVIS 24 h,[1]; [8],11.2%
same,Suppression rate (%) IVIS 48 h,[1]; [8],0%
same,Suppression rate (%) IVIS 72 h,[1]; [8],0%
same,Suppression rate (%) IVIS 24 h,[1]; [9],45.7%
same,Suppression rate (%) IVIS 48 h,[1]; [9],0%
same,Suppression rate (%) IVIS 72 h,[1]; [9],0%
same,liver luminescence after 24 hours,[1]; single oral dose 25 mg/kg,high levels of luminescence and no suppression of signal
same,Effects,[2]; [3],Suppression
same,Blood Infection by FCM,[2]; [3],5/5
same,Effects,[2]; [4],Partial CP
same,Blood Infection by FCM,[2]; [4],5/10
same,Effects,[2]; [5],Partial CP
same,Blood Infection by FCM,[2]; [5],4/20
same,Effects,[2]; [6],Partial CP
same,Blood Infection by FCM,[2]; [6],1/10
same,Delay in patency (days after onset in controls),"[2]; 20 mg/kg oral, 3 days (-1, 0, 1), per infected mouse",6 days
same,Effects,[2]; [7],Full CP
same,Blood Infection by FCM,[2]; [7],0/10
same,Effects,[2]; [8],Suppression
same,Blood Infection by FCM,[2]; [8],5/5
same,Effects,[2]; [9],Suppression
same,Blood Infection by FCM,[2]; [9],5/5
same,blood stage parasitaemia 5–30 days after infection,[2]; single oral dose 25 mg/kg,severe parasitaemia
